The results in this text go back to patent US7488811B2, “Macrolide compounds endowed with antiinflammatory activity” (Zambon Group S.p.A., priority 2002, dated 2009).

For series [1], the system named is LPS-induced accumulation of neutrophils in rat lungs. Nature of the series: LPS-induced pulmonary inflammation in rats (neutrophil count in bronchial fluid wash). As to conditions: single oral dose 100, 40, 10 μmol/kg one hour before LPS 0.4 mg/kg endotracheal, 20 h, erythromycin: single oral dose 130 μmol/kg; for ED50: Rattus norvegicus, Neutrophil, read-out: ED50 (dose inducing 50% reduction in neutrophil count in bronchial fluid wash). It counts as in vivo. The method, then:
B) LPS-Induced Pulmonary Inflammation in Rats • Administration
The rats received endotracheally, via the peroral route, a single dose of 0.4 mg/kg of LPS (E. coli, serotype 026:6). The tracheal instillation was performed under anaesthesia with halothane and, 20 hours after the endotracheal administration of LPS/saline solution, the animals were sacrificed by means of an overdose of urethane. • Washing
The lungs were washed with 4 aliquots of 5 ml each of saline solution with 10 IU ml^−1 heparin. The cell suspension was concentrated by low-speed centrifugation and the cell pellet was suspended. • Counting of the Cells and Differentiation.
The total cell count was performed in a haemocytometer.
The differential counting was performed on cytospin preparations stained with May-Grunwald-Giemsa (Tamaoki J., Tagaya E., Yamawaki I., Sakai, Nagai A., Konno K, 1995. Effect of erythromycin on endotoxin-induced microvascular leakage in the rat trachea and lungs. Am. J. Respir. Crit. Care Med., 151, 1582-8). The rats received the test compounds orally in doses of 100, 40 and 10 μmol/kg as a single administration dose orally one hour before exposure to LPS.
ED50 value is the dose that induced a 50% reduction in the neutrophil count in the bronchial fluid wash.
The data relating to erythromycin refers to an oral treatment with a single dose of 130 μmol/kg.

The test system of series [2] is Enterococcus faecalis ATCC 29212. Nature of the series: Antibiotic activity, MIC or activity at 128 μg/ml. The format is cell-based. The note with it: Enter. faecalis ATCC 29212; for MIC: Enterococcus faecalis, ATCC29212. As to the method: (§1) The MIC values were determined in liquid earth according to the method described in “Manual of Clinical Microbiology, 7th edition (1999), American Society for Microbiology”.

Series [3] has as its system Streptococcus pyogenes ATCC 19615. Nature of the series: Antibiotic activity at 128 μg/ml. The format is cell-based. As to conditions: Strep. pyogenes ATTC 19615. As to the method:
as §1

In series [4] the test system is Staphylococcus aureus ATCC 6538. Briefly: Antibiotic activity at 128 μg/ml. The format is cell-based. The note with it: Staph. aureus ATCC 6538. As to the method:
as §1

In series [5] the test system is PMA-induced oedema in mouse ear. Nature of the series: Acute contact dermatitis: TPA (PMA)-induced ear oedema in mice. It counts as in vivo. As to conditions: CD1 mice, 500 μg/ear topical in TPDS 30 min before TPA 0.01%, 6 h. As to the method:
Groups of 5-6 CD1 mice (18-24 g) were used. • Administration of the compounds
All the macrolide compounds were dissolved in Trans-phase Delivery System (TPDS), a vehicle formed by 10% benzyl alcohol, 40% acetone and 50% isopropanol.
15 microlitres of the compounds (500 μg), dissolved in TPDS, were applied topically to the inner surface of an ear; 30 minutes later, 12 microlitres of a solution of tetradecanoylphorbol acetate (TPA) at a concentration of 0.01% dissolved in acetone were applied to the same area.
Six hours later, the animals were sacrificed by inhalation of CO2. • Evaluation of the results
Two methods were used to evaluate the auricular oedema: • a) Weight of a given portion of auricular pinna. • b) Measurement of the auricular thickness using precision spring callipers.
The degree of oedema was calculated by subtracting the weight or the thickness of the untreated ear from that of the contralateral treated ear. To determine the degree of remission of the oedema, the difference (weight or thickness) of the groups treated with TPA+macrolides was then compared with the groups treated with TPA alone.
The activity of the macrolide compounds was measured by using the modified method of Zunic et al. (1998): MDL (Lysyl) GDP, a non-toxic muramyl dipeptide derivative inhibits cytokine production by activated macrophages and protects mice from phorbol ester- and oxazolone-induced inflammation (J. Invest. Dermatol., 111(1), 77-82).
The data relating to erythromycin and azythromycin concern the treatment with a single dose of 500 μg/ear.

The test system of series [6] is Staphylococcus aureus ATCC 29213. Nature of the series: Antibiotic activity, MIC in liquid medium. As to conditions: ATCC29213, Staph. aureus ATCC 29213. It counts as cell-based. As to the method: as §1
Series [7] concerns Streptococcus pneumoniae ATCC 49619. Nature of the series: Antibiotic activity, MIC in liquid medium. The format is cell-based. As to conditions: ATCC49619, Strep. pneum ATTC 49619. As to the method: as §1
A short description of series [8]: Water solubility noted at work-up. As to conditions: remark in the work-up. The format is physicochemical. The method, then:
Compound 19 was prepared from intermediate 28 (600 mg, 0.64 mmol) according to the procedures described for compound 1. Given that the product is water-soluble, the crude solid was dissolved in water (50′ ml) and washed with CH2Cl2 (3×20 ml). The solvent was evaporated from the aqueous phase under vacuum and dried to give compound 19 (480 mg, 95% yield) as a crystalline solid. • [M+1]^+ 775

The mark [9] stands for this setting: method a: weight of a given portion of auricular pinna.

In brackets after ≈: the same amount, converted by molar mass. Some results are limits rather than exact numbers.

Turning to `CC[C@H]1OC(=O)[C@H](C)[C@@H](O)[C@H](C)[C@@H](O[C@@H]2O[C@H](C)C[C@H](N(C)C(C)=O)[C@H]2O)C(C)(O)C[C@@H](C)[C@H](O)[C@H](C)[C@@H](O)[C@]1(C)O` (stereo partly shown) [Compound 1], the ED50 (commonly the dose at which the effect has come halfway, by size or by number of responders) in series [1] is 7 µmol/kg. Further, the “Antibiotic activity at 128 μg/ml” value in series [2] (128 μg/ml), in series [3] (128 μg/ml) and in series [4] (128 μg/ml) was “not active” each time. In addition, the minimum inhibitory concentration (MIC) in series [2], in series [6] and in series [7] was over 128 µg/mL throughout. Moreover, the inhibition in vivo (usually the drop in the measured response relative to a control, in per cent) at 500 µg/ear in series [5] (setting [9]) is 65.6%.
`CC[C@H]1OC(=O)[C@H](C)[C@@H](O)[C@H](C)[C@@H](O[C@@H]2O[C@H](C)CC[C@H]2O)C(C)(O)C[C@@H](C)/C(=N\O)[C@H](C)[C@@H](O)[C@]1(C)O` (stereo partly shown) [Compound 14]: in series [1], the median effective dose (ED50) came to 15 µmol/kg. Moreover, the inhibition in vivo at 500 µg/ear in series [5] (setting [9]) was found to be 71.5%.
As for `CC[C@H]1OC(=O)[C@H](C)[C@@H](O)[C@H](C)[C@H](O[C@@H]2O[C@H](C)CC(N(C)C)[C@@H]2O)[C@](C)(O)C[C@@H](C)/C(=N\OCCNCCNCc2nccs2)[C@H](C)[C@H](O)[C@]1(C)O` (stereo partly shown) [Compound 19], the Solubility in water result in series [8] is “water-soluble”. For the same molecule, the MIC (commonly the lowest concentration that inhibits growth of the organism) in series [2] was over 128 µg/mL; in series [6], over 128 µg/mL; in series [7] it was 16 µg/mL (≈ 20.7 µM). This molecule also had an inhibition in vivo at 500 µg/ear in series [5] (method b: auricular thickness by precision spring callipers) of 28.2%.
As to `CC[C@H]1OC(=O)[C@H](C)[C@@H](O[C@H]2C[C@@](C)(OC)[C@@H](O)[C@H](C)O2)[C@H](C)[C@@H](O[C@@H]2O[C@H](C)C[C@H](N(C)C)[C@H]2O)[C@](C)(O)C[C@@H](C)C(=O)[C@H](C)[C@@H](O)[C@]1(C)O` [Erythromycin, reference compound], in series [1], the “ED50 (dose inducing 50% reduction in neutrophil count in bronchial fluid wash)” value is given as “Not active”. Moreover, the MIC in series [2] is 1 µg/mL (≈ 1.36 µM); in series [3] (Streptococcus pyogenes, ATCC19615) it was 0.12 µg/mL (≈ 0.164 µM); in series [4] (Staphylococcus aureus, ATCC6538) it was 0.25 µg/mL (≈ 0.341 µM); in series [6], 0.25 µg/mL (≈ 0.341 µM); in series [7], 0.12 µg/mL (≈ 0.164 µM). This molecule registered an inhibition in vivo at 500 µg/ear in series [5] (setting [9]) of 42%.
